This is an account of results in US5476966A, “Method for depletion of glutathione” (Cornell Research Foundation, Inc., priority 1995, dated 1995).

Series [1] concerns the target T1, γ-Glutamylcysteine Synthetase (Rattus norvegicus, UniProt P19468).
T1 construct: Rat kidney γ-Glutamylcysteine synthetase was purified from Sprague Dawley (Taconic Farms) rats; from tissue; host or cells: rat kidney (Sprague Dawley, Taconic Farms)
T1 sequence (P19468 1-637): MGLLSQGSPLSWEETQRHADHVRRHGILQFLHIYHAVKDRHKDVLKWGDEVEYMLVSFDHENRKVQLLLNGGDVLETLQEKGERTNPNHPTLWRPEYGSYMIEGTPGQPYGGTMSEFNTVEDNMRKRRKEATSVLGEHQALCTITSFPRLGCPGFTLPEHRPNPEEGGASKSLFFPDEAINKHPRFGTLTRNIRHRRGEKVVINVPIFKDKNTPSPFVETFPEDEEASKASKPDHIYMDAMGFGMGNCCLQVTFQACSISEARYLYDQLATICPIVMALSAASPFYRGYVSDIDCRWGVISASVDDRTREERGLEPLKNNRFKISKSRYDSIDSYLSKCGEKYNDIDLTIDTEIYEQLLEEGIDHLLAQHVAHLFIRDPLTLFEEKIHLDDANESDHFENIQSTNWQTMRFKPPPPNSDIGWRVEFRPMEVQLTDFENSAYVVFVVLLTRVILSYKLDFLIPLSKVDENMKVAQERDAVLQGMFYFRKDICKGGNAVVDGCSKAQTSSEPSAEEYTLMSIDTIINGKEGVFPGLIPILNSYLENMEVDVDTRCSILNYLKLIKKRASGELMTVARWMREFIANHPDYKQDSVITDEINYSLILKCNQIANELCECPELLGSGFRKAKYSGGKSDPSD
T1 sequence (P48508 1-274 partner): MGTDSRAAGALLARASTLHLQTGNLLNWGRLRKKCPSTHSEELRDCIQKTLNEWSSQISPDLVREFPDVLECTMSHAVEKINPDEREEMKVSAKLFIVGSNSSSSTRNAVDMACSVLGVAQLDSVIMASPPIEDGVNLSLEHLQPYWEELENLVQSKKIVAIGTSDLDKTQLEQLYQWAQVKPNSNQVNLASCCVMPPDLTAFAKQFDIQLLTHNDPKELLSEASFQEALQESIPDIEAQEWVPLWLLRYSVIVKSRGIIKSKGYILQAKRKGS
The experiment in a line: Inhibition of γ-glutamylcysteine synthetase (preincubation assay). Format: biochemical. Conditions: 30 min preincubation, 22° C.; read-out: Kiapp; Concentration for 50% Inhibition.
Method: Rat kidney γ-Glutamylcysteine synthetase was purified from Sprague Dawley (Taconic Farms) rats (Seelig., Methods in Enzymology, 1985, 113:379-390).
The preincubation assay of γ-glutamylcysteine synthetase is given below. γ-Glutamylcysteine synthetase (4.6 units) was added to a mixture (final volume, 50 μl) containing 100 mM Tris/HCl (pH 8.2), 5 mM ATP, 20 mM MgCl2, 0.2 mM EDTA, and the sulfoximine being evaluated. After incubation at 22° C. for 30 minutes, a 45 μl aliquot of the preincubation mixture was added to the assay as follows.
γ-Glutamylcysteine synthetase was assayed as follows (Griffith et al, J. Biological Chem., 1979, 254:1205-1210). The reaction mixture (final volume, 1.0 ml) contained 100 mM Tris/HCl (pH 8.2), 120 mM KCl, 5 mM phosphoenolpyruvate, 20 mM MgCl2, 10 mM sodium L-glutamate, 10 mM L-α-aminobutyric acid, 0.2 mM EDTA, 0.4 mM NADH, pyruvate kinase (10 IU), and lactate dehydrogenase (10 IU). The reaction (37° C.) was initiated by the addition of γ-glutamylcysteine synthetase and the oxidation of NADH, equivalent to ADP formation, was recorded at 340 nm.

Series [2] deals with human lymphoid cell lines. Conditions: cited from earlier work.
The test system of the next series is tumor cell lines. The conditions noted are these: glucose oxidase, activated macrophages and granulocytes with phorbol myristate acetate; cited from earlier work.

As a reminder, the cell viability is a per cent measure of how many cells are alive, often set against a control.

`CCCCS(=N)(=O)CCC(N)C(=O)O` [BSO, L-S-butyl homocysteine-SR-sulfoximine]: in series [1], the Ki stood at 600 nM. Also, the “disappeared intracellular glutathione found in the medium” value in series [2] (CEM line, L-serine plus borate in medium) is recorded as “About 50%”. The “cell viability on further decrease in glutathione level” value in series [2] (below 0.09 mM glutathione) is reported as “marked loss of viability”. Also, the cell viability in series [2] (cells with 0.09 mM glutathione (4% of controls)) is reported as 85%. In series [2] (three human lymphoid cell lines, medium containing BSO, 50 hours), the “cellular glutathione as percent of control levels” value is on record as “about 5%”. In the series on tumor cell lines, the degree of cytolysis result is “enhanced the degree of cytolysis”.
